Laboratory results as given in ChEMBL document CHEMBL1201862, “PubChem BioAssay data set” (2004).
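Following 48 hours of exposure in 96-well plates, responses at five concentrations were used to interpolate endpoints linearly. GI50 = concentration required for 50% inhibition of growth.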 Activity calls are given as the source filed them. Cut-off read from the data, not from the text of the source: active = GI50 up to about 1.1 µM and inactive = higher.

Columns and labels:
Experiment in all cases: DTP human tumour cell line panel, 48 h
786-0 = system: 786-0
A498 = system: A498
A549 = system: A549
ACHN = system: ACHN
BT-549 = system: BT-549
CAKI-1 = system: CAKI-1
CCRF-CEM = system: CCRF-CEM
COLO 205 = system: COLO 205
DU-145 = system: DU-145
EKVX = system: EKVX
HCC 2998 = system: HCC 2998
HCT-116 = system: HCT-116
HCT-15 = system: HCT-15
HOP-62 = system: HOP-62
HOP-92 = system: HOP-92
HT-29 = system: HT-29
Hs-578T = system: Hs-578T
IGROV-1 = system: IGROV-1
KM12 = system: KM12
LOX IMVI = system: LOX IMVI
M14 = system: M14
MCF7 = system: MCF7
MDA-MB-231 = system: MDA-MB-231
MDA-MB-435 = system: MDA-MB-435
MDA-N = system: MDA-N
MOLT-4 = system: MOLT-4
Malme-3M = system: Malme-3M
NCI-H226 = system: NCI-H226
NCI-H23 = system: NCI-H23
NCI-H460 = system: NCI-H460
NCI-H522 = system: NCI-H522
NCI/ADR-RES = system: NCI/ADR-RES
OVCAR-3 = system: OVCAR-3
OVCAR-4 = system: OVCAR-4
OVCAR-5 = system: OVCAR-5
OVCAR-8 = system: OVCAR-8
PC-3 = system: PC-3
RPMI-8226 = system: RPMI-8226
RXF 393 = system: RXF 393
SF-268 = system: SF-268
SF-295 = system: SF-295
SF-539 = system: SF-539
SK-MEL-28 = system: SK-MEL-28
SK-MEL-2 = system: SK-MEL-2
SK-MEL-5 = system: SK-MEL-5
SK-OV-3 = system: SK-OV-3
SN12C = system: SN12C
SNB-19 = system: SNB-19
SNB-75 = system: SNB-75
SW-620 = system: SW-620
T47D = system: T47D
TK-10 = system: TK-10
U-251 = system: U-251
UACC-257 = system: UACC-257
UACC-62 = system: UACC-62
UO-31 = system: UO-31
HL-60 = system: HL-60

With `Fc1ccc(C(OCCN2CCC3CCC(C2)N3C/C=C/c2cccnc2)c2ccc(F)cc2)cc1` (centres undefined) the GI50 (786-0) was 5270 nM (inactive), the GI50 (A498) was 14300 nM (inactive) and the GI50 (A549) was 11800 nM (inactive). For the same compound, the GI50 (ACHN) was 14200 nM (inactive), the GI50 (BT-549) was 13600 nM (inactive) and the GI50 (CAKI-1) was 12000 nM (inactive). For the same compound, the GI50 (CCRF-CEM) was 4110 nM (inactive), the GI50 (COLO 205) was 1300 nM (inactive) and the GI50 (DU-145) was 15800 nM (inactive). The GI50 (EKVX) was 12200 nM (inactive), the GI50 (HCC 2998) was 4790 nM (inactive) and the GI50 (HCT-116) was 5930 nM (inactive). For the same compound, the GI50 (HCT-15) was 10000 nM, the GI50 (HOP-62) was 14200 nM (inactive) and the GI50 (HOP-92) was 13400 nM (inactive). The GI50 (HT-29) was 3440 nM (inactive), the GI50 (Hs-578T) was 12000 nM (inactive) and the GI50 (IGROV-1) was 13300 nM (inactive). For the same compound, the GI50 (KM12) was 10500 nM (inactive), the GI50 (LOX IMVI) was 13100 nM (inactive) and the GI50 (M14) was 2530 nM (inactive). The GI50 (MCF7) was 11000 nM (inactive), the GI50 (MDA-MB-231) was 13300 nM (inactive) and the GI50 (MDA-MB-435) was 11100 nM (inactive). The GI50 (MDA-N) was 11600 nM (inactive), the GI50 (MOLT-4) was 2480 nM (inactive) and the GI50 (Malme-3M) was 4080 nM (inactive). The GI50 (NCI-H226) was 12100 nM (inactive), the GI50 (NCI-H23) was 12800 nM (inactive) and the GI50 (NCI-H460) was 12700 nM (inactive). The GI50 (NCI-H522) was 13600 nM (inactive), the GI50 (NCI/ADR-RES) was 11300 nM (inactive) and the GI50 (OVCAR-3) was 12800 nM (inactive). For the same compound, the GI50 (OVCAR-4) was 12600 nM (inactive), the GI50 (OVCAR-5) was 13800 nM (inactive) and the GI50 (OVCAR-8) was 13000 nM (inactive). For the same compound, the GI50 (PC-3) was 9930 nM (inactive), the GI50 (RPMI-8226) was 3430 nM (inactive) and the GI50 (RXF 393) was 5280 nM (inactive). For the same compound, the GI50 (SF-268) was 12800 nM (inactive), the GI50 (SF-295) was 9230 nM (inactive) and the GI50 (SF-539) was 11500 nM (inactive). For the same compound, the GI50 (SK-MEL-28) was 2240 nM (inactive), the GI50 (SK-MEL-2) was 13300 nM (inactive) and the GI50 (SK-MEL-5) was 4010 nM (inactive). The GI50 (SK-OV-3) was 14700 nM (inactive), the GI50 (SN12C) was 13100 nM (inactive) and the GI50 (SNB-19) was 15200 nM (inactive). The GI50 (SNB-75) was 14200 nM (inactive), the GI50 (SW-620) was 10100 nM (inactive) and the GI50 (T47D) was 12600 nM (inactive). For the same compound, the GI50 (TK-10) was 11500 nM (inactive), the GI50 (U-251) was 11900 nM (inactive) and the GI50 (UACC-257) was 3780 nM (inactive). The GI50 (UACC-62) was 12300 nM (inactive) and the GI50 (UO-31) was 1880 nM (inactive).

In the case of `CC(=O)Oc1ccc2c3c1[C@@H]1O[C@@H]1c1cccc(c1-3)[C@@H]1O[C@H]21`, the GI50 (786-0) is reported as 1480 nM (inactive), the GI50 (A498) is reported as 2190 nM (inactive) and the GI50 (A549) is reported as 2320 nM (inactive). The GI50 (ACHN) was 1840 nM (inactive), the GI50 (BT-549) was 1870 nM (inactive) and the GI50 (CAKI-1) was 1590 nM (inactive). For the same compound, the GI50 (CCRF-CEM) was 601 nM (active), the GI50 (COLO 205) was 1990 nM (inactive) and the GI50 (DU-145) was 1910 nM (inactive). The GI50 (EKVX) was 2020 nM (inactive), the GI50 (HCC 2998) was 2000 nM (inactive) and the GI50 (HCT-116) was 1660 nM (inactive). The GI50 (HCT-15) was 1660 nM, the GI50 (HL-60) was 883 nM (active) and the GI50 (HOP-62) was 2010 nM (inactive). For the same compound, the GI50 (HOP-92) was 1810 nM (inactive), the GI50 (HT-29) was 1810 nM (inactive) and the GI50 (Hs-578T) was 2870 nM (inactive). The GI50 (KM12) was 2050 nM (inactive), the GI50 (LOX IMVI) was 962 nM (active) and the GI50 (M14) was 1720 nM (inactive). For the same compound, the GI50 (MCF7) was 2550 nM (inactive), the GI50 (MDA-MB-231) was 2020 nM (inactive) and the GI50 (MDA-MB-435) was 1140 nM (inactive). For the same compound, the GI50 (MDA-N) was 1840 nM (inactive), the GI50 (Malme-3M) was 1860 nM (inactive) and the GI50 (NCI-H226) was 18200 nM (inactive). The GI50 (NCI-H23) was 1630 nM (inactive), the GI50 (NCI-H522) was 1470 nM (inactive) and the GI50 (NCI/ADR-RES) was 1820 nM (inactive). For the same compound, the GI50 (OVCAR-3) was 2000 nM (inactive), the GI50 (OVCAR-4) was 2030 nM (inactive) and the GI50 (OVCAR-5) was 1860 nM (inactive). The GI50 (OVCAR-8) was 1540 nM (inactive), the GI50 (PC-3) was 2330 nM (inactive) and the GI50 (RPMI-8226) was 1370 nM (inactive). For the same compound, the GI50 (RXF 393) was 1360 nM (inactive), the GI50 (SF-268) was 2110 nM (inactive) and the GI50 (SF-295) was 1940 nM (inactive). The GI50 (SK-MEL-28) was 1960 nM (inactive), the GI50 (SK-MEL-2) was 2370 nM (inactive) and the GI50 (SK-MEL-5) was 1610 nM (inactive). For the same compound, the GI50 (SK-OV-3) was 3440 nM (inactive), the GI50 (SN12C) was 1600 nM (inactive) and the GI50 (SNB-19) was 3010 nM (inactive). For the same compound, the GI50 (SNB-75) was 1630 nM (inactive), the GI50 (SW-620) was 1140 nM (inactive) and the GI50 (T47D) was 2140 nM (inactive). For the same compound, the GI50 (TK-10) was 2080 nM (inactive), the GI50 (U-251) was 2120 nM (inactive) and the GI50 (UACC-257) was 2430 nM (inactive). The GI50 (UACC-62) was 1870 nM (inactive) and the GI50 (UO-31) was 1520 nM (inactive).
